What follows are molecules tested against human H4 receptor (Homo sapiens (Human), UniProt Q9H3N8) (assay: H4 Binding assay ([3H]histamine competition, membranes from CHO-K1 cells transfected with human H4 receptor)). Settings: not given.
Experimental: Affinity for histamine H4-receptor was determined by H4 Binding assay:
• Membranes from CHO-K1 cells transfected with human H4 receptor and microplates of 96-well format were used. • For competition studies cell membranes were homogenated in Tris-HCl 50 mM, EDTA 5 mM, pH 7.4 and added to the microplate at the concentration of approximately 15 μg/well. […] Non specific binding was defined using 10 μM unlabeled histamine and the total incubation volume was 275 μl per well. • Incubations were performed under gentle agitation at 25° C. for 60 min and concluding with a rapid vacuum filtration using pre-soaked filters (0.5% polyethylenimine). After ten rapid washes with cold wash buffer (50 mM Tris-HCl buffer) the filter plates were dried at room temperature for 30 min. • Finally, scintillation liquid (Microscint 20) was added to the whole microplate in order to measure the radioactivity reattained on the filters using a specific scintillation counter (Top Count—NXT). […] H1 Binding Assay Materials

| Compound | Ki |
| --- | --- |
| O=S(=O)(CCNc1nc(C2=CCNCC2)nc2cnc(Cl)cc12)Nc1ccccc1 [Example 41, 2-((6-chloro-2-(1,2,3,6-tetrahydropyridin-4-yl)pyrido[3,4-d]pyrimidin-4-yl)amino)-N-phenylethane-1-sulfonamide] | < 100 nM |

Same assay, conditions: affinity for human histamine H4 receptor, class symbols; read-out: ACTIVITY CLASS hH4R (Ki)

| Compound | Ki |
| --- | --- |
| CN1CCN(c2nc(NCc3nccs3)c3cc(Cl)ncc3n2)CC1 [Example 7, 6-chloro-2-(4-methylpiperazin-1-yl)-N-(thiazol-2-ylmethyl)pyrido[3,4-d]pyrimidin-4-amine] | < 1000 nM |
| CNS(=O)(=O)CCNc1nc(N2CCN(C)CC2)nc2cnc(Cl)cc12 [Example 14, 2-((6-chloro-2-(4-methylpiperazin-1-yl)pyrido[34-d]pyrimidin-4-yl)amino)-N-methylethane-1-sulfonamide] | < 100 nM |
| CN1CCN(c2nc(NCCS(=O)(=O)N3CCOCC3)c3cc(Cl)ncc3n2)CC1 [Example 18, 6-chloro-2-(4-methylpiperazin-1-yl)-N-(2-(morpholinosulfonyl)ethyl)pyrido[3,4-d]pyrimidin-4-amine] | < 100 nM |
| O=S(=O)(CCNc1nc(N2CCNCC2)nc2cnc(Cl)cc12)N1CCOCC1 [Example 28, 6-chloro-N-(2-(morpholinosulfonyl)ethyl)-2-(piperazin-1-yl)pyrido[3,4-d]pyrimidin-4-amine] | < 100 nM |
| Cc1cc2c(NCc3cccs3)nc(N3CCN(C)CC3)nc2cn1 [Example 46, 6-methyl-2-(4-methylpiperazin-1-yl)-N-(thiophen-2-ylmethyl)pyrido[3,4-d]pyrimidin-4-amine] | < 1000 nM |
| CC(C)c1cc2c(NCc3ccco3)nc(N3CCN(C)CC3)nc2cn1 [Example 51, N-(furan-2-ylmethyl)-6-isopropyl-2-(4-methylpiperazin-1-yl)pyrido[3,4-d]pyrimidin-4-amine] | < 1000 nM |
| CC(C)c1cc2c(NCCc3cccs3)nc(N3CCN(C)CC3)nc2cn1 [Example 53, 6-isopropyl-2-(4-methylpiperazin-1-yl)-N-(2-(thiophen-2-yl)ethyl)pyrido[3,4-d]pyrimidin-4-amine] | < 1000 nM |
| CN1CCN(c2nc(NCCS(N)(=O)=O)c3cc(Cl)ncc3n2)CC1 [Example 71, 2-((6-chloro-2-(4-methylpiperazin-1-yl)pyrido[3,4-d]pyrimidin-4-yl)amino)ethane-1-sulfonamide] | < 100 nM |
| CN1CCN(c2nc(NCCS(=O)(=O)Nc3cccc(Cl)c3)c3cc(Cl)ncc3n2)CC1 [Example 76, 2-((6-chloro-2-(4-methylpiperazin-1-yl)pyrido[3,4-d]pyrimidin-4-yl)amino)-N-(3-chlorophenyl)ethane-1-sulfonamide] | < 100 nM |
| CN1CCN(c2nc(NCCS(=O)(=O)Nc3cccc(OC(F)(F)F)c3)c3cc(Cl)ncc3n2)CC1 [Example 77, 2-((6-chloro-2-(4-methylpiperazin-1-yl)pyrido[3,4-d]pyrimidin-4-yl)amino)-N-(3-(trifluoromethoxy)phenyl)ethane-1-sulfonamide] | < 1000 nM |
| CN1CCN(c2nc(NCCS(=O)(=O)Nc3cccc(C(F)(F)F)c3)c3cc(Cl)ncc3n2)CC1 [Example 78, 2-((6-chloro-2-(4-methylpiperazin-1-yl)pyrido[3,4-d]pyrimidin-4-yl)amino)-N-(3-(trifluoromethyl)phenyl)ethane-1-sulfonamide] | < 100 nM |
| CSc1cccc(NS(=O)(=O)CCNc2nc(N3CCN(C)CC3)nc3cnc(Cl)cc23)c1 [Example 81, 2-((6-chloro-2-(4-methylpiperazin-1-yl)pyrido[3,4-d]pyrimidin-4-yl)amino)-N-(3-(methylthio)phenyl)ethane-1-sulfonamide] | < 100 nM |
| CN1CCN(c2nc(NCCS(=O)(=O)Nc3ccc(Cl)cc3)c3cc(Cl)ncc3n2)CC1 [Example 82, 2-((6-chloro-2-(4-methylpiperazin-1-yl)pyrido[3,4-d]pyrimidin-4-yl)amino)-N-(4-chlorophenyl)ethane-1-sulfonamide] | < 100 nM |

More lines, now with the values ahead:

| Ki | Compound |
| --- | --- |
| < 1000 nM | CN1CCN(c2nc(NCCc3cccs3)c3cc(Cl)ncc3n2)CC1 [Example 6, 6-chloro-2-(4-methylpiperazin-1-yl)-N-(2-(thiophen-2-yl)ethyl)pyrido[3,4-d]pyrimidin-4-amine] |
| < 1000 nM | CN1CCN(c2nc(NCc3ncc[nH]3)c3cc(Cl)ncc3n2)CC1 [Example 8, N-((1H-imidazol-2-yl)methyl)-6-chloro-2-(4-methylpiperazin-1-yl)pyrido[3,4-d]pyrimidin-4-amine] |
| < 100 nM | CN1CCN(c2nc(NCCS(=O)(=O)NCc3ccccc3)c3cc(Cl)ncc3n2)CC1 [Example 15, N-benzyl-2-((6-chloro-2-(4-methylpiperazin-1-yl)pyrido[3,4-d]pyrimidin-4-yl)amino)ethane-1-sulfonamide] |
| < 100 nM | CN1CCN(c2nc(NCCS(=O)(=O)Nc3ccccc3)c3cc(Cl)ncc3n2)CC1 [Example 16, 2-((6-chloro-2-(4-methylpiperazin-1-yl)pyrido[3,4-d]pyrimidin-4-yl)amino)-N-phenylethane-1-sulfonamide] |
| < 1000 nM | CCCCNc1nc(N2CCN(C)CC2)nc2cnc(Cl)cc12 [Example 22, N-butyl-6-chloro-2-(4-methylpiperazin-1-yl)pyrido[3,4-d]pyrimidin-4-amine] |
| < 100 nM | O=S(=O)(CCNc1nc(N2CCNCC2)nc2cnc(Cl)cc12)Nc1ccccc1 [Example 26, 2-((6-chloro-2-(piperazin-1-yl)pyrido[3,4-d]pyrimidin-4-yl)amino)-N-phenylethane-1-sulfonamide] |
| < 100 nM | CN(c1ccccc1)S(=O)(=O)CCNc1nc(N2CCNCC2)nc2cnc(Cl)cc12 [Example 27, 2-((6-chloro-2-(piperazin-1-yl)pyrido[3,4-d]pyrimidin-4-yl)amino)-N-methyl-N-phenylethane-1-sulfonamide] |
| < 100 nM | O=S(=O)(CCNc1nc(N2CCN3CCCC3C2)nc2cnc(Cl)cc12)Nc1ccccc1 (stereo not drawn) [Example 37, 2-((6-chloro-2-(hexahydropyrrolo[1,2-a]pyrazin-2(1H)-yl)pyrido[3,4-d]pyrimidin-4-yl)amino)-N-phenylethane-1-sulfonamide] |
| < 100 nM | O=S(=O)(CCNc1nc(N2CCN3CCCC3C2)nc2cnc(Cl)cc12)N1CCOCC1 (stereo not drawn) [Example 38, 6-chloro-2-(hexahydropyrrolo[1,2-a]pyrazin-2(1H)-yl)-N-(2-(morpholinosulfonyl)ethyl)pyrido[3,4-d]pyrimidin-4-amine] |
| < 1000 nM | CCCc1cc2c(NCCc3cccs3)nc(N3CCN(C)CC3)nc2cn1 [Example 50, 2-(4-methylpiperazin-1-yl)-6-propyl-N-(2-(thiophen-2-yl)ethyl)pyrido[3,4-d]pyrimidin-4-amine] |
| < 100 nM | CC(C)c1cc2c(NCc3cccs3)nc(N3CCN(C)CC3)nc2cn1 [Example 52, 6-isopropyl-2-(4-methylpiperazin-1-yl)-N-(thiophen-2-ylmethyl)pyrido[3,4-d]pyrimidin-4-amine] |
| < 1000 nM | CN1CCN(c2nc(NCCc3nccs3)c3cc(Cl)ncc3n2)CC1 [Example 70, 6-chloro-2-(4-methylpiperazin-1-yl)-N-(2-(thiazol-2-yl)ethyl)pyrido[3,4-d]pyrimidin-4-amine] |
| < 100 nM | Cc1ccccc1NS(=O)(=O)CCNc1nc(N2CCN(C)CC2)nc2cnc(Cl)cc12 [Example 73, 2-((6-chloro-2-(4-methylpiperazin-1-yl)pyrido[3,4-d]pyrimidin-4-yl)amino)-N-(o-tolyl)ethane-1-sulfonamide] |
| < 1000 nM | CN1CCN(c2nc(NCCS(=O)(=O)Nc3ccccc3N)c3cc(Cl)ncc3n2)CC1 [Example 75, N-(2-aminophenyl)-2-((6-chloro-2-(4-methylpiperazin-1-yl)pyrido[3,4-d]pyrimidin-4-yl)amino)ethane-1-sulfonamide] |
| < 100 nM | Cc1cccc(NS(=O)(=O)CCNc2nc(N3CCN(C)CC3)nc3cnc(Cl)cc23)c1 [Example 79, 2-((6-chloro-2-(4-methylpiperazin-1-yl)pyrido[3,4-d]pyrimidin-4-yl)amino)-N-(m-tolyl)ethane-1-sulfonamide] |
| < 100 nM | COc1cccc(NS(=O)(=O)CCNc2nc(N3CCN(C)CC3)nc3cnc(Cl)cc23)c1 [Example 80, 2-((6-chloro-2-(4-methylpiperazin-1-yl)pyrido[3,4-d]pyrimidin-4-yl)amino)-N-(3-methoxyphenyl)ethane-1-sulfonamide] |
| < 1000 nM | CN1CCN(c2nc(NCCS(=O)(=O)Nc3ccc(C(F)(F)F)cc3)c3cc(Cl)ncc3n2)CC1 [Example 83, 2-((6-chloro-2-(4-methylpiperazin-1-yl)pyrido[3,4-d]pyrimidin-4-yl)amino)-N-(4-(trifluoromethyl)phenyl)ethane-1-sulfonamide] |
| < 100 nM | Cc1ccc(NS(=O)(=O)CCNc2nc(N3CCN(C)CC3)nc3cnc(Cl)cc23)cc1 [Example 84, 2-((6-chloro-2-(4-methylpiperazin-1-yl)pyrido[3,4-d]pyrimidin-4-yl)amino)-N-(p-tolyl)ethane-1-sulfonamide] |
| < 100 nM | CN1CCN(c2nc(NCCS(=O)(=O)Nc3cccnc3)c3cc(Cl)ncc3n2)CC1 [Example 86, 2-((6-chloro-2-(4-methylpiperazin-1-yl)pyrido[3,4-d]pyrimidin-4-yl)amino)-N-(pyridin-3-yl)ethane-1-sulfonamide] |

Same assay, conditions: histamine H4 receptor binding

| IC50 | Compound |
| --- | --- |
| 889 nM | CN1CCN(c2nc(NCc3cccs3)c3cnc(Cl)cc3n2)CC1 [Example 3P, reference compound] |

Same assay, conditions: histamine H4 receptor binding; compounds initially evaluated at 1 μM

| inhibition at 1 µM | Compound |
| --- | --- |
| 68% | CN1CCN(c2nc(NCc3cccs3)c3cnc(Cl)cc3n2)CC1 [Example 3P, reference compound] |

Same assay, conditions: histamine H4 receptor, comparative compounds; read-out: Ki

| Ki | Compound |
| --- | --- |
| 340 nM | CN1CCN(c2nc(NCc3cccs3)c3cnc(Cl)cc3n2)CC1 [Example 3P, reference compound] |

— patent publication US12492199B2, “Pyridopyrimidines as histamine H4-receptor inhibitors” (FAES FARMA, S.A., priority 2018, dated 2025)
